Blank lines part the entries; values can stand above or below the compound they belong to.
Biological target: human full-length MKNK1 (Homo sapiens (Human), UniProt Q9BUB5, T344D)
Test: MKNK1 kinase high ATP assay (TR-FRET)
Format: biochemical
Settings: high ATP (2 mM), 15 min preincubation with enzyme; read-out: MKNK1 IC50
Method: MKNK1 Kinase High ATP Assay
MKNK1-inhibitory activity at high ATP of compounds of the present invention after their preincubation with MKNK1 was quantified employing the TR-FRET-based MKNK1 high ATP assay as described in the following paragraphs.
A recombinant fusion protein of Glutathione-S-Transferase (GST, N-terminally) and human full-length MKNK1 (amino acids 1-424 and T344D of accession number BAA 19885.1), expressed in insect cells using baculovirus expression system and purified via glutathione sepharose affinity chromatography, was purchased from Carna Biosciences (product no 02-145) and used as enzyme. As substrate for the kinase reaction the biotinylated peptide biotin-Ahx-IKKRKLTRRKSLKG (SEQ ID NO: 1, C-terminus in amide form) was used, which can be purchased e.g. from the company Biosyntan (Berlin-Buch, Germany).
For the assay 50 nL of a 100 fold concentrated solution of the test compound in DMSO was pipetted into a black low volume 384 well microtiter plate (Greiner Bio-One, Frickenhausen, Germany), 2 μL of a solution of MKNK1 in aqueous assay buffer [50 mM HEPES pH 7.5, 5 mM MgCl2, 1.0 mM dithiothreitol, 0.005% (v/v) Nonidet-P40 (Sigma)] was added and the mixture was incubated for 15 min at 22° C. to allow pre-binding of the test compounds to the enzyme before the start of the kinase reaction. Then the kinase reaction was started by the addition of 3 μL of a solution of adenosine-tri-phosphate (ATP, 3.3 mM=>final conc. in the 5 μL assay volume is 2 mM) and substrate (0.1 μM=>final conc. in the 5 μL assay volume is 0.06 μM) in assay buffer and the resulting mixture was incubated for a reaction time of 30 min at 22° C. The concentration of MKNK1 was adjusted depending of the activity of the enzyme lot and was chosen appropriate to have the assay in the linear range, typical concentrations were in the range of 0.003 μg/mL. The reaction was stopped by the addition of 5 μL of a solution of TR-FRET detection reagents (5 nM streptavidine-XL665 [Cisbio Bioassays, Codolet, France] and 1 nM anti-ribosomal protein S6 (pSer236)-antibody from Invitrogen [#44921G] and 1 nM LANCE EU-W1024 labeled ProteinG [Perkin-Elmer, product no. AD0071]) in an aqueous EDTA-solution (100 mM EDTA, 0.1% (w/v) bovine serum albumin in 50 mM HEPES pH 7.5).
The resulting mixture was incubated for 1 h at 22° C. to allow the formation of complex between the phosphorylated biotinylated peptide and the detection reagents. Subsequently the amount of phosphorylated substrate was evaluated by measurement of the resonance energy transfer from the Eu-chelate to the streptavidine-XL. Therefore, the fluorescence emissions at 620 nm and 665 nm after excitation at 350 nm were measured in a TR-FRET reader, e.g. a Rubystar (BMG Labtechnologies, Offenburg, Germany) or a Viewlux (Perkin-Elmer). The ratio of the emissions at 665 nm and at […] was taken as the measure for the amount of phosphorylated substrate. The data were normalised (enzyme reaction without inhibitor=0% inhibition, all other assay components but no enzyme=100% inhibition).

Sequence of human full-length MKNK1 (Q9BUB5 other isoform, or with tags, fused parts or gaps T344D): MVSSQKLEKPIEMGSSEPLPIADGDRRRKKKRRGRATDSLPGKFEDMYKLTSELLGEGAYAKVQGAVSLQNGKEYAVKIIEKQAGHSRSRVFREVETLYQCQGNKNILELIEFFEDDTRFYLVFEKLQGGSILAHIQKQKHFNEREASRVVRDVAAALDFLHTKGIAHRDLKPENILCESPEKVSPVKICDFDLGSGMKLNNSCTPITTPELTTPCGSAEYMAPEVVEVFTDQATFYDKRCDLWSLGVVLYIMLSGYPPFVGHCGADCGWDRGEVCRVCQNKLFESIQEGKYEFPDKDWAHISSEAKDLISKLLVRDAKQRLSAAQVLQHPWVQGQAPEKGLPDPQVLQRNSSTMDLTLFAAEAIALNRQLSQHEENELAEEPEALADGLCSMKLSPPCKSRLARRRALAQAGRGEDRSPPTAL

SMILES: CN(C)C(=O)C1CCc2c(sc3ncnc(Nc4ccn5nccc5c4)c23)C1 (racemic) [Example 1, (RS) N,N-Dimethyl-4-(pyrazolo[1,5-a]pyridin-5-ylamino)-5,6,7,8-tetrahydro[1]benzothieno[2,3-d]pyrimidine-7-carboxamide]
- IC50: 64 nM

- IC50: 707 nM
SMILES: O=C(O)[C@H]1CCc2c(sc3ncnc(Nc4ccn5nccc5c4)c23)C1 [Example 2, (7S)-4-(Pyrazolo[1,5-a]pyridin-5-ylamino)-5,6,7,8-tetrahydro[1]benzothieno[2,3-d]pyrimidine-7-carboxylic acid]

SMILES: C[C@@H]1COCCN1C(=O)[C@H]1CCc2c(sc3ncnc(Nc4ccn5nccc5c4)c23)C1 [Example 3, [(3R)-3-Methylmorpholin-4-yl][(7S)-4-(pyrazolo[1,5-a]pyridin-5-ylamino)-5,6,7,8-tetrahydro[1]benzothieno[2,3-d]pyrimidin-7-yl]methanone]
- IC50: 80 nM

SMILES: CN(C)CCN(C)C(=O)[C@H]1CCc2c(sc3ncnc(Nc4ccn5nccc5c4)c23)C1 [Example 4, (7S)—N-[2-(Dimethylamino)ethyl]-N-methyl-4-(pyrazolo[1,5-a]pyridin-5-ylamino)-5,6,7,8-tetrahydro[1]benzothieno[2,3-d]pyrimidine-7-carboxamide]
- IC50: 21 nM

SMILES: C[C@@H]1CN(C(=O)[C@H]2CCc3c(sc4ncnc(Nc5ccn6nccc6c5)c34)C2)C[C@H](C)O1 [Example 5, [(2R,6S)-2,6-Dimethylmorpholin-4-yl][(7S)-4-(pyrazolo[1,5-a]pyridin-5-ylamino)-5,6,7,8-tetrahydro[1]benzothieno[2,3-d]pyrimidin-7-yl]methanone]
- IC50: 21 nM

SMILES: CN(C)[C@@H]1CCN(C(=O)[C@H]2CCc3c(sc4ncnc(Nc5ccn6nccc6c5)c34)C2)C1 [Example 6, [(3R)-3-(Dimethylamino)pyrrolidin-1-yl][(7S)-4-(pyrazolo[1,5-a]pyridin-5-ylamino)-5,6,7,8-tetrahydro[1]benzothieno[2,3-d]pyrimidin-7-yl]methanone]
- IC50: 12 nM

SMILES: C[C@H]1COCCN1C(=O)[C@H]1CCc2c(sc3ncnc(Nc4ccn5nccc5c4)c23)C1 [Example 7, [(3S)-3-Methylmorpholin-4-yl][(7S)-4-(pyrazolo[1,5-a]pyridin-5-ylamino)-5,6,7,8-tetrahydro[1]benzothieno[2,3-d]pyrimidin-7-yl]methanone]
- IC50: 65 nM

SMILES: COCCN(C)C(=O)[C@H]1CCc2c(sc3ncnc(Nc4ccn5nccc5c4)c23)C1 [Example 8, (7S)—N-(2-Methoxyethyl)-N-methyl-4-(pyrazolo[1,5-a]pyridin-5-ylamino)-5,6,7,8-tetrahydro[1]benzothieno[2,3-d]pyrimidine-7-carboxamide]
- IC50: 42 nM

SMILES: C[C@H]1CN(C(=O)[C@H]2CCc3c(sc4ncnc(Nc5ccn6nccc6c5)c34)C2)C[C@H](C)O1 [Example 9, [(2S,6S)-2,6-Dimethylmorpholin-4-yl][(7S)-4-(pyrazolo[1,5-a]pyridin-5-ylamino)-5,6,7,8-tetrahydro[1]benzothieno[2,3-d]pyrimidin-7-yl]methanone]
- IC50: 49 nM

SMILES: C[C@@H]1CN(C(=O)[C@H]2CCc3c(sc4ncnc(Nc5ccn6nccc6c5)c34)C2)C[C@@H](C)O1 [Example 10, [(2R,6R)-2,6-Dimethylmorpholin-4-yl][(7S)-4-(pyrazolo[1,5-a]pyridin-5-ylamino)-5,6,7,8-tetrahydro[1]benzothieno[2,3-d]pyrimidin-7-yl]methanone]
- IC50: 33 nM

SMILES: O=C([C@H]1CCc2c(sc3ncnc(Nc4ccn5nccc5c4)c23)C1)N1CCOCC1 [Example 11, Morpholin-4-yl[(7S)-4-(pyrazolo[1,5-a]pyridin-5-ylamino)-5,6,7,8-tetrahydro[1]benzothieno[2,3-d]pyrimidin-7-yl]methanone]
- IC50: 62 nM

SMILES: O=C([C@H]1CCc2c(sc3ncnc(Nc4ccn5nccc5c4)c23)C1)N1CC2CC2C1 (stereo partly drawn) [Example 12, 3-Azabicyclo[3.1.0]hex-3-yl[(7S)-4-(pyrazolo[1,5-a]pyridin-5-ylamino)-5,6,7,8-tetrahydro[1]benzothieno[2,3-d]pyrimidin-7-yl]methanone]
- IC50: 24 nM

SMILES: C[C@@H]1COC[C@H](C)N1C(=O)[C@H]1CCc2c(sc3ncnc(Nc4ccn5nccc5c4)c23)C1 [Example 13, [(3R,5S)-3,5-Dimethylmorpholin-4-yl][(7S)-4-(pyrazolo[1,5-a]pyridin-5-ylamino)-5,6,7,8-tetrahydro[1]benzothieno[2,3-d]pyrimidin-7-yl]methanone]
- IC50: 17 nM

SMILES: C[C@@H]1COC[C@@H](C)N1C(=O)[C@H]1CCc2c(sc3ncnc(Nc4ccn5nccc5c4)c23)C1 [Example 14, [(3R,5R)-3,5-Dimethylmorpholin-4-yl][(7S)-4-(pyrazolo[1,5-a]pyridin-5-ylamino)-5,6,7,8-tetrahydro[1]benzothieno[2,3-d]pyrimidin-7-yl]methanone]
- IC50: 7 nM

SMILES: CC(C)N(C)C(=O)[C@H]1CCc2c(sc3ncnc(Nc4ccn5nccc5c4)c23)C1 [Example 16, (7S)—N-Isopropyl-N-methyl-4-(pyrazolo[1,5-a]pyridin-5-ylamino)-5,6,7,8-tetrahydro[1]benzothieno[2,3-d]pyrimidine-7-carboxamide]
- IC50: 19 nM

SMILES: CN(C)C(=O)[C@H]1CCc2c(sc3ncnc(Nc4ccn5nccc5c4)c23)C1 [Example 17, (7S)—N,N-Dimethyl-4-(pyrazolo[1,5-a]pyridin-5-ylamino)-5,6,7,8-tetrahydro[1]benzothieno[2,3-d]pyrimidine-7-carboxamide]
- IC50: 33 nM

SMILES: CN(CC(F)F)C(=O)[C@H]1CCc2c(sc3ncnc(Nc4ccn5nccc5c4)c23)C1 [Example 18, (7S)—N-(2,2-Difluoroethyl)-N-methyl-4-(pyrazolo[1,5-a]pyridin-5-ylamino)-5,6,7,8-tetrahydro[1]benzothieno[2,3-d]pyrimidine-7-carboxamide]
- IC50: 19 nM

SMILES: CN(CC(C)(C)O)C(=O)[C@H]1CCc2c(sc3ncnc(Nc4ccn5nccc5c4)c23)C1 [Example 19, (7S)—N-(2-Hydroxy-2-methylpropyl)-N-methyl-4-(pyrazolo[1,5-a]pyridin-5-ylamino)-5,6,7,8-tetrahydro[1]benzothieno[2,3-d]pyrimidine-7-carboxamide]
- IC50: 21 nM

SMILES: O=C([C@H]1CCc2c(sc3ncnc(Nc4ccn5nccc5c4)c23)C1)N1CCC1 [Example 20, Azetidin-1-yl[(7S)-4-(pyrazolo[1,5-a]pyridin-5-ylamino)-5,6,7,8-tetrahydro[1]benzothieno[2,3-d]pyrimidin-7-yl]methanone]
- IC50: 26 nM

SMILES: CCN(CCO)C(=O)[C@H]1CCc2c(sc3ncnc(Nc4ccn5nccc5c4)c23)C1 [Example 21, (7S)—N-Ethyl-N-(2-hydroxyethyl)-4-(pyrazolo[1,5-a]pyridin-5-ylamino)-5,6,7,8-tetrahydro[1]benzothieno[2,3-d]pyrimidine-7-carboxamide]
- IC50: 19 nM

SMILES: N#CC1CN(C(=O)[C@H]2CCc3c(sc4ncnc(Nc5ccn6nccc6c5)c34)C2)C1 [Example 22, 1-{[(7S)-4-(Pyrazolo[1,5-a]pyridin-5-ylamino)-5,6,7,8-tetrahydro[1]benzothieno[2,3-d]pyrimidin-7-yl]carbonyl}azetidine-3-carbonitrile]
- IC50: 21 nM

SMILES: O=C([C@H]1CCc2c(sc3ncnc(Nc4ccn5nccc5c4)c23)C1)N1CC(F)(F)C1 [Example 23, (3,3-Difluoroazetidin-1-yl)[(7S)-4-(pyrazolo[1,5-a]pyridin-5-ylamino)-5,6,7,8-tetrahydro[1]benzothieno[2,3-d]pyrimidin-7-yl]methanone]
- IC50: 23 nM
